Laboratory results reported in patent publication US12583841B2, “Tetrahydropyrrolocyclic compound and application thereof” (Breakthrough Pharmaceuticals Inc., priority 2021, dated 2026).

Assays:
Format in all cases: in vivo
[1] = system: SD rats; assay: Effect on spontaneous activities of SD rats; conditions: SD rat, 30 mg/kg, recorded 60 min from 30 minutes after administration, Mean±SEM; blank vehicle 31.91 ± 3.92
Experimental: Test purpose: to judge the effect of the test compound on the activity of rats by measuring the spontaneous activity distance of rats in a period of time.
Test scheme: 12 male SD rats aged 7 weeks were adapted in the laboratory 1 day before the start of the test. On the day of the experiment, the rats were randomly divided into 2 groups according to their body weight, with 6 rats in each group, and the rats were given blank vehicle and compound 8 (30 mg/kg), respectively. The animals were put into a test box 30 minutes after administration, and the distance data of animal activity were recorded every 5 min with Any-maze software, and the recording was continued for 60 min. By comparing the total distance of animal activity within the recording time, it is judged whether the drug has a significant effect on the spontaneous activity of the animal. The experimental data were represented by the mean±[…] (Mean±SEM). The statistical method adopted one-way analysis of variance plus Dunnett's multiple comparisons. P<0.05 was represented as *, p<0.01 was represented as **, and p<0.001 was represented as ***.

[2] = Pharmacokinetic parameters in Beagle dog plasma
Experimental: (§1) 4 healthy male Beagle dogs were selected and randomly divided into two groups, with 2 dogs in each group. One group was given the test compound at 1 mg/kg by intravenous injection, and the other group was given the test compound at 5 mg/kg by intragastric administration. Plasma samples were collected at 0.033, 0.083, 0.25, 0.5, 1.0, 2.0, 4.0, 6.0, 8.0, and 24 h after administration for the intravenous injection group and intragastric administration group, respectively. Quantitative analysis of all biological samples was carried out by LC-MS/MS method, and the WinNonlin™ Version 6.3 (Pharsight, Mountain View, CA) pharmacokinetic software was used to calculate the relevant pharmacokinetic parameters by the non-compartmental model linear logarithmic trapezoidal method. AUC0-last represents area under the plasma concentration-time curve from time zero to the last detectable concentration time point; p.o. represents oral; i.v. represents intravenous injection; T1/2 represents half-life; CL represents clearance rate; Vd represents apparent volume of distribution; Cmax represents peak concentration; Tmax represents time to peak; F % represents oral bioavailability.

[3] = Pharmacokinetic parameters in SD rat plasma
Experimental: as §1, with “healthy SD rats aged 6-9 weeks” for “healthy male Beagle dogs”, “2 rats” for “2 dogs”, “at 2” for “at 1”, “at 10” for “at 5”, “at” for “at 0.033,”
as §1, with “male SD rats aged 6-9 weeks” for “male Beagle dogs”, “2 rats” for “2 dogs”, “at 2” for “at 1”, “at 10” for “at 5”, “at” for “at 0.033,”

[4] = Drug concentration in cerebrospinal fluid of Beagle dogs; conditions: male, po, Beagle dog, p.o. 5 mg/kg
Experimental: 2 healthy male Beagle dogs were selected, and after intragastric administration of the test compound at 5 mg/kg, cerebrospinal fluid samples were taken at 0.5 h, 2 h and 6 h after the administration, respectively. Quantitative analysis of all biological samples was carried out by LC-MS/MS method, and the WinNonlin™ Version 6.3 (Pharsight, Mountain View, CA) pharmacokinetic software was used to calculate the relevant pharmacokinetic parameters by the non-compartmental model linear logarithmic trapezoidal method. AUC0-last represents area under the plasma concentration-time curve from time zero to the last detectable concentration time point; p.o. represents oral; i.v. represents intravenous injection; T1/2 represents half-life; CL represents clearance rate; Vd represents apparent volume of distribution; Cmax represents peak concentration; Tmax represents time to peak; F % represents oral bioavailability.

[5] = male, Sprague-Dawley (SD), plasma, iv, i.v. 2 mg/kg
[6] = male, Sprague-Dawley (SD), plasma, po, p.o. 10 mg/kg

COc1ccc(-n2nccn2)c(C(=O)N2C(c3nc4ccc(OC)cc4[nH]3)CC3CC32)c1 (centres unmarked) [Compound 8]
Spontaneous activity distance [1]: 14.73 ± 1.38 meters | AUC(0-t) ([2]; male, plasma, iv, i.v. 1 mg/kg): 15.3 µM·h | clearance ([2]; male, plasma, iv, i.v. 1 mg/kg): 2.57 mL/min/kg | half-life ([2]; male, plasma, iv, i.v. 1 mg/kg): 167 min | Vd ([2]; male, plasma, iv, i.v. 1 mg/kg, read-out: Vdss): 0.41 L/kg | AUC(0-t) ([2]; male, plasma, po, p.o. 5 mg/kg): 26.2 µM·h | Cmax ([2]; male, plasma, po, p.o. 5 mg/kg): 6180 nM | Tmax ([2]; male, plasma, po, p.o. 5 mg/kg): 60 min | F ([2]; p.o. 5 mg/kg vs i.v. 1 mg/kg): 34% | AUC(0-t) [3, 5]: 1.76 µM·h | clearance [3, 5]: 44 mL/min/kg | half-life [3, 5]: 12 min | Vd ([3]; male, Sprague-Dawley (SD), plasma, iv, i.v. 2 mg/kg, read-out: Vdss): 0.57 L/kg | AUC(0-t) [3, 6]: 1.45 µM·h | Cmax [3, 6]: 1030 nM | Tmax [3, 6]: 15 min | F ([3]; p.o. 10 mg/kg vs i.v. 2 mg/kg): 17% | concentration at 0.5 h ([4]; 0.5 h): 1160 nM | concentration at 2 h ([4]; 2 h): 773 nM | concentration at 6 h ([4]; 6 h): 110 nM
